Measured values reported in patent publication US20240076272A1, “Activators of Heme Regulated Inhibitor Kinase (HRI)” (The Brigham and Women`s Hospital, Inc., priority 2019, published 2024).

Legend:
[1] = test system: MCF-7 cells transfected with siRNA targeting HRI; assay: cell proliferation assay with siRNA knockdown of HRI (specificity for HRI); format: cell-based, human; settings: MCF-7 cells with or without siRNA targeting HRI; three days; SRB (FIG. 3)
Protocol: MCF-7 cells transfected with (solid bars) or without (hatched bars) siRNA targeting HRI were treated with the indicated concentrations of each compound for three days starting one day after transfection. Cell proliferation was measured by sulforhodamine B assay as previously reported (see e.g., Chen et al, Nat. Chem. Biol. 7 (2011) 610-616).
Stable cell lines utilized in this study were generated according to previous reports (see e.g., Bai et al, ChemBioChem, 14 (2013) 1255-1262). Briefly, cells were seeded at the density of 10^5 in 60-mm dish and transfected one day later using the Lipofectamine 2000 (Invitrogen). For selection of stable cell lines, transfected cells were transferred to 100-mm plates and selected with appropriate antibiotics (see e.g., Chen et al, Nat. Chem. Biol. 7 (2011) 610-616). siRNA knockdown was carried out in 96-well plates by reverse transfection as previously reported (see e.g., Chen et al, Nat. Chem. Biol. 7 (2011) 610-616).
To determine the specificity of the compounds described herein for HRI, knockdown expression of HRI in MCF-7 cells using a pool of siRNA targeting HRI was performed, along with a cell proliferation assay as a biologic response parameter (see e.g., Chen et al, Nat. Chem. Biol. 7 (2011) 610-616; and Chen et al, J. Med. Chem. 56 (2013) 9457-9470). This assay was selected because it compares specificity of the compounds for HRI compared to all other cellular targets that can impinge on cell proliferation. MCF-7 human breast cancer cells transfected with siRNA targeting HRI or vehicle were treated with various concentrations of representative 4-CF3-ΦOcHΦUs (1-VI, 4-VI, and 5-VI) and 4-CF3-ΦOcBΦU (1-IV).

CHOP = assay: Western blot, CHOP expression in CRL-2813 cells; format: cell-based, human; settings: 5 μM, 8 hours, Western blot (FIG. 2B)
Protocol: FIGS. 2A-2B show HRI activators of the present application induce eIF2α phosphorylation and modify its downstream effectors. In FIG. 2A, CRL-2813 cells were treated with 5 μM of each compound for 2 hours, cell lysates were probed with phosphorylated (P-eIF2α) and total eIF2α (T-eIF2α) and β-actin specific antibodies. In FIG. 2B, CRL-2813 cells were treated with 5 μM HRI activators for 8 hours and lysates were immunoblotted with antibodies against CHOP, p27^KiPl, cyclin D1 and β-actin.
Cells cultured under recommended media conditions were plated and maintained in serum-containing media without antibiotics in 14-cm plates (Nunc) until reaching 70% confluence. Cells were then treated with compounds for 6 h, washed with cold PBS once, and lysed with M-PER Mammalian Protein Extraction Reagent (Pierce) for 30 min on ice. The cell lysates were centrifuged at 12,000 RPM for 15 min and the supernatants were transferred to fresh tubes and the concentrations were determined by BCA (Pierce). Equal amount of proteins were mixed with Laemmli Sample Buffer, heated at 100° C. for 5 min, separated by SDS-PAGE, and probed with anti-phosphoserine-51-eIF2α (Phos-eIF2α), anti-total eIF2α-specific antibodies (Total-eIF2α) (Biosource International, Hopkinton, MA), anti-CHOP, anti-cyclin D1 or anti-actin (Santa Cruz Biotechnology, CA) using procedures substantially similar to previous reports (see e.g., Aktas et al, Mol. Cell. Biol. 17 (1997) 3850-3857).
Endogenous eIF2α is the best-known substrate of HRI and the upstream regulator of the eIF2·GTP·Met-tRNAi ternary complex abundance, while CHOP expression is a downstream effector of eIF2α phosphorylation. For assessing eIF2α phosphorylation, blotted cell lysates were treated for two hours with vehicle or selected compounds using antibodies specific for the total-eIF2α and the phosphorylated-eIF2α (T-eIF2α and [PhoS^51]-eIF2α), respectively (see e.g., Aktas et al, J. Nutr. 134 (2004) 2487S-2491S) (see FIG. 2A).

## N#Cc1cc(NC(=O)N[C@H]2C[C@H](Oc3ccc(C(F)(F)F)cc3)C2)cc(C(F)(F)F)c1 [Compound 1-IV, 1-(3-Cyano-5-(trifluoromethyl)phenyl)-3-(trans-3-(4-(trifluoromethyl)phenoxy)cyclobutyl)urea]
[1]
  effect of knocking down HRI on the anti-proliferative activity: dramatic reduction in the activity
CHOP
  expression of CHOP relative to DMSO: increased the expression of CHOP

## N#Cc1cc(NC(=O)N[C@H]2CC[C@H](Oc3ccc(C(F)(F)F)cc3)CC2)cc(C(F)(F)F)c1 [Compound 1-VI, 1-(3-cyano-5-trifluoromethyl) phenyl-3-(trans-4-(4-(trifluoromethyl)phenoxy)cyclohexyl)urea, reference compound]
[1]
  effect of knocking down HRI on the anti-proliferative activity: dramatic reduction in the activity
CHOP
  expression of CHOP relative to DMSO: increased the expression of CHOP

## N#Cc1cc(F)cc(NC(=O)N[C@H]2CC[C@H](Oc3ccc(C(F)(F)F)cc3)CC2)c1 [Compound 4-VI, 1-(3-Cyano-5-fluorophenyl)-3-(trans-4-(4-(trifluoromethyl)phenoxy)cyclohexyl)urea]
[1]
  effect of knocking down HRI on the anti-proliferative activity: dramatic reduction in the activity
CHOP
  expression of CHOP relative to DMSO: increased the expression of CHOP

## N#Cc1ccc(NC(=O)N[C@H]2CC[C@H](Oc3ccc(C(F)(F)F)cc3)CC2)cc1F [Compound 5-VI, 1-(4-Cyano-3-fluorophenyl)-3-(trans-4-(4-(trifluoromethyl)phenoxy)cyclohexyl)urea]
[1]
  effect of knocking down HRI on the anti-proliferative activity: dramatic reduction in the activity
CHOP
  expression of CHOP relative to DMSO: increased the expression of CHOP
